Legend:
Type in all cases: biochemical
[1] = system: Amy3=Stainzyme Plus L (12L); test: amylase storage stability in liquid formulation (pNP release from Ethyliden-blocked-pNPG7); conditions: base formulation II., 1.5 wt % component (a), storage at 37° C.
Procedure: (§1) The storage stability of amylase was assessed at 37° C.
Base test formulations were manufactured by making base formulations I to V by mixing the components according to Table 1.
Amylases used: Amy1=Stainzyme, Amy2=Amplify, Amy3=Stainzyme Plus L (12L)
The respective component (a) or comparative compound was added, if applicable, to the respective base formulation in amounts as indicated in Table 1.
The amount of amylase as provided in Table 1 refers to active protein.
Water was added to accomplish the balance to 100.
(§2) Amylase activity at certain points in time as indicated in Table 2 was measured quantitatively by the release of the chromophore para-nitrophenol (pNP) from the substrate (Ethyliden-blocked-pNPG7, Roche Applied Science 10880078103). The alpha-amylase degrades the substrate into smaller molecules and α-glucosidase (Roche Applied Science 11626329103), which is present in excess compared to the amylase, process these smaller products until pNP is released; the release of pNP, measured via an increase of absorption at 405 nm, is directly proportional to the amylase activity of the sample. Amylase standard: Termamyl 120 L (Sigma 3403).
(§3) The amylolytic activity values provided were calculated referring to the value determined in the reference formulation at the time 0.
(§4) The nomenclature of formulations is as follows: the Roman number before the full stop characterizes the base formulation, the Arabian number the type of compound (A.# compound according to invention (component (a)); B.# comparative compound).

Savinase Ultra 16.0L = target: T1, Savinase Ultra 16.0L (Lederbergia lenta, UniProt P29600); test: protease storage stability in liquid formulation (Suc-AAPF-pNA substrate); conditions: storage at 37° C.
T1 construct: purchased Sigma-Aldrich
T1 sequence (P29600 1-269): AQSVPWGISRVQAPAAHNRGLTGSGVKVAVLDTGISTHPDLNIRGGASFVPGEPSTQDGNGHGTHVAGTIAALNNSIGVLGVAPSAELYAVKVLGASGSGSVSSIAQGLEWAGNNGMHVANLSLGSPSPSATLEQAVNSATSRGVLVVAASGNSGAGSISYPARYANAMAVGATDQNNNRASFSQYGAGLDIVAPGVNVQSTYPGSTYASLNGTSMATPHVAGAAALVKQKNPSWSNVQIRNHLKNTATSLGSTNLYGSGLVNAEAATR
Outline: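 Savinase in liquid base formulations containing test salt, comparative compound or diethylene glycol; amounts given as active protein. Residual activity at set storage times measured with Suc-AAPF-pNA via pNA release at OD405, 20 °C. Activity expressed relative to reference formulation at time 0.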

Amylase = test: amylase storage stability in liquid laundry formulation (pNP release from Ethyliden-blocked-pNPG7); set-up: key: % of activity in reference formulation at time 0; conditions: 2.5 wt % component (a), storage at 37° C.
Procedure: as §1
Base test formulations were manufactured by making base formulations VI to IX by mixing the components according to Table 4.
as §2, with “Table 5” for “Table 2”
as §3, §4

CCCOC(=O)CC(O)(CC(=O)OCCC)C(=O)OCCC [A.2, Tripropylcitrate]
amylase activity, referring to reference formulation at time 0 ([1]; 3 d): 100
amylase activity, referring to reference formulation at time 0 ([1]; 7 d): 97
amylase activity, referring to reference formulation at time 0 ([1]; 14 d): 93
amylase activity, referring to reference formulation at time 0 ([1]; 21 d): 87
amylase activity, referring to reference formulation at time 0 ([1]; 28 d): 83
amylase activity, referring to reference formulation at time 0 ([1]; 42 d): 69
amylase activity, referring to reference formulation at time 0 ([1]; T0): 102
protease activity, referring to reference formulation at time 0 (Savinase Ultra 16.0L; base formulation I., 1.5 wt % component (a), 3 d): 100
protease activity, referring to reference formulation at time 0 (Savinase Ultra 16.0L; base formulation I., 1.5 wt % component (a), 7 d): 95
protease activity, referring to reference formulation at time 0 (Savinase Ultra 16.0L; base formulation I., 1.5 wt % component (a), 14 d): 90
protease activity, referring to reference formulation at time 0 (Savinase Ultra 16.0L; base formulation I., 1.5 wt % component (a), 21 d): 85
protease activity, referring to reference formulation at time 0 (Savinase Ultra 16.0L; base formulation I., 1.5 wt % component (a), 28 d): 81
protease activity, referring to reference formulation at time 0 (Savinase Ultra 16.0L; base formulation I., 1.5 wt % component (a), 42 d): 71
protease activity, referring to reference formulation at time 0 (Savinase Ultra 16.0L; base formulation I., 1.5 wt % component (a), T0): 101
protease activity, referring to reference formulation at time 0 (Savinase Ultra 16.0L; base formulation II., 1.5 wt % component (a), 3 d): 100
protease activity, referring to reference formulation at time 0 (Savinase Ultra 16.0L; base formulation II., 1.5 wt % component (a), 7 d): 96
protease activity, referring to reference formulation at time 0 (Savinase Ultra 16.0L; base formulation II., 1.5 wt % component (a), 14 d): 91
protease activity, referring to reference formulation at time 0 (Savinase Ultra 16.0L; base formulation II., 1.5 wt % component (a), 21 d): 87
protease activity, referring to reference formulation at time 0 (Savinase Ultra 16.0L; base formulation II., 1.5 wt % component (a), 28 d): 83
protease activity, referring to reference formulation at time 0 (Savinase Ultra 16.0L; base formulation II., 1.5 wt % component (a), 42 d): 72
protease activity, referring to reference formulation at time 0 (Savinase Ultra 16.0L; base formulation II., 1.5 wt % component (a), T0): 101
protease activity, referring to reference formulation at time 0 (Savinase Ultra 16.0L; base formulation III., 1.5 wt % component (a), 3 d): 100
protease activity, referring to reference formulation at time 0 (Savinase Ultra 16.0L; base formulation III., 1.5 wt % component (a), 7 d): 95
protease activity, referring to reference formulation at time 0 (Savinase Ultra 16.0L; base formulation III., 1.5 wt % component (a), 14 d): 93
protease activity, referring to reference formulation at time 0 (Savinase Ultra 16.0L; base formulation III., 1.5 wt % component (a), 21 d): 88
protease activity, referring to reference formulation at time 0 (Savinase Ultra 16.0L; base formulation III., 1.5 wt % component (a), 28 d): 83
protease activity, referring to reference formulation at time 0 (Savinase Ultra 16.0L; base formulation III., 1.5 wt % component (a), 42 d): 73
protease activity, referring to reference formulation at time 0 (Savinase Ultra 16.0L; base formulation III., 1.5 wt % component (a), T0): 101
protease activity, referring to reference formulation at time 0 (Savinase Ultra 16.0L; base formulation V., 2.0 wt % component (a), 3 d): 95
protease activity, referring to reference formulation at time 0 (Savinase Ultra 16.0L; base formulation V., 2.0 wt % component (a), 7 d): 92
protease activity, referring to reference formulation at time 0 (Savinase Ultra 16.0L; base formulation V., 2.0 wt % component (a), 14 d): 87
protease activity, referring to reference formulation at time 0 (Savinase Ultra 16.0L; base formulation V., 2.0 wt % component (a), 21 d): 82
protease activity, referring to reference formulation at time 0 (Savinase Ultra 16.0L; base formulation V., 2.0 wt % component (a), 28 d): 77
protease activity, referring to reference formulation at time 0 (Savinase Ultra 16.0L; base formulation V., 2.0 wt % component (a), 42 d): 70
protease activity, referring to reference formulation at time 0 (Savinase Ultra 16.0L; base formulation V., 2.0 wt % component (a), T0): 100
amylase activity, referring to reference formulation at time 0 (Amylase; laundry base formulation IX. (2.5 DTPA), 3 d): 93
amylase activity, referring to reference formulation at time 0 (Amylase; laundry base formulation IX. (2.5 DTPA), 7 d): 85
amylase activity, referring to reference formulation at time 0 (Amylase; laundry base formulation IX. (2.5 DTPA), 14 d): 81
amylase activity, referring to reference formulation at time 0 (Amylase; laundry base formulation IX. (2.5 DTPA), 21 d): 72
amylase activity, referring to reference formulation at time 0 (Amylase; laundry base formulation IX. (2.5 DTPA), 28 d): 63
amylase activity, referring to reference formulation at time 0 (Amylase; laundry base formulation IX. (2.5 DTPA), T0): 100
amylase activity, referring to reference formulation at time 0 (Amylase; laundry base formulation VI. (2.0 EDTA), 3 d): 94
amylase activity, referring to reference formulation at time 0 (Amylase; laundry base formulation VI. (2.0 EDTA), 7 d): 86
amylase activity, referring to reference formulation at time 0 (Amylase; laundry base formulation VI. (2.0 EDTA), 14 d): 80
amylase activity, referring to reference formulation at time 0 (Amylase; laundry base formulation VI. (2.0 EDTA), 21 d): 74
amylase activity, referring to reference formulation at time 0 (Amylase; laundry base formulation VI. (2.0 EDTA), 28 d): 65
amylase activity, referring to reference formulation at time 0 (Amylase; laundry base formulation VI. (2.0 EDTA), T0): 101
amylase activity, referring to reference formulation at time 0 (Amylase; laundry base formulation VIII. (2.5 DTPA, no Savinase), 3 d): 94
amylase activity, referring to reference formulation at time 0 (Amylase; laundry base formulation VIII. (2.5 DTPA, no Savinase), 7 d): 87
amylase activity, referring to reference formulation at time 0 (Amylase; laundry base formulation VIII. (2.5 DTPA, no Savinase), 14 d): 83
amylase activity, referring to reference formulation at time 0 (Amylase; laundry base formulation VIII. (2.5 DTPA, no Savinase), 21 d): 77
amylase activity, referring to reference formulation at time 0 (Amylase; laundry base formulation VIII. (2.5 DTPA, no Savinase), 28 d): 69
amylase activity, referring to reference formulation at time 0 (Amylase; laundry base formulation VIII. (2.5 DTPA, no Savinase), T0): 99

From patent US20220112479A1, “COMPOUNDS STABILIZING AMYLASES IN LIQUIDS” (BASF SE, priority 2018, published 2022)
